The results in this text go back to patent publication US20080113347A1, “Method for the in Vitro Diagnosis and Prognosis of Demyelinating Diseases, and for the Development of Drugs Against Demyelinating Diseases” (priority 2003, published 2008).

The structures appear in SMILES notation.

The test system of the test is dusp6 gene expression. Description: Differential analysis of dusp6 gene expression in oligodendrocyte cultures with Rat Genome U34 DNA arrays. The test is classed as cell-based. Further details: key to Change: Increases (I); Decreases (D); undergoes No Change (NC); Marginally Increases (MI); Marginally Decreases (MD); key to Detection: Present (P); Absent (A); Marginal (M). Particulars: for SLR (vs control): Signal Log Ratio (log2); for Signal (dusp6, probe set U42627_at): arrays scaled to total intensity 100; for Change: vs control. The source says: Microarrays. The microarrays GeneChip Test 3 (Affymetrix, Santa Clara) were used which allow testing the quality of the RNA prior to the expression analysis with GeneChip Rat Genome U34 set (Affymetrix, Santa Clara), representing 3322 complete gene sequences. The dusp6 gene is represented in the microarray by probe set U42627_at of Affymetrix, which are sense oligonucleotides of 25 nucleotides in length designed on the basis of GeneBank U42627 sequence (Table 1).
Samples. The samples studied corresponded to primary oligodendrocyte cultures obtained from the optic nerve of 12-day old rats. To prevent inter-individual variations, each culture corresponded to a 10-animal cell pool. Treatments were made in duplicate with 10 μM AMPA (α-amino-3-hydroxy-5-methyl-4-isoxazolepropionic acid) or 3 μM kainate. The duration of treatments was 2, 10 and 15 minutes, the cells being collected immediately after treatment in the first two cases and 1 hour after the 15-minute treatment. Treatment for 10 and 15 minutes with AMPA and with kainate causes apoptosis, whereas 2-minute treatment was considered sublethal due to scarce treatment duration. After treatments, the cells were collected in TRIzol® Reagent (Life Technologies) and were stored at −80° C. until total RNA extraction.
The analysis was carried out with total RNA from oligodendrocyte cultures. Each sample corresponded to the mixture of total RNAs from two cultures and were called the following: control: untreated cultured oligodendrocytes ampa 2: oligodendrocytes treated for 2 minutes with 10 μM AMPA and collected after treatment ampa 10: oligodendrocytes treated for 10 minutes with 10 μM AMPA collected after treatment ampa 15: oligodendrocytes treated for 15 minutes with 10 μM AMPA and collected 60 minutes later Kainate 2: oligodendrocytes treated for 2 minutes with 3 μM kainate and collected after treatment Kainate 10: oligodendrocytes treated for 10 minutes with 3 μM kainate and collected after treatment Kainate 15: oligodendrocytes treated for 15 minutes with 3 μM kainate and collected 60 minutes later The total RNA of each one of the cultures was obtained by homogenizing the cells in TRIzol® Reagent (Life Technologies) following the supplier's recommendations. The resulting total RNA was cleaned with the RNeasy Mini kit (QIAGEN) (Chomczynski P. et al., Anal. Biochem., 1987, 162: 156; Chomczynski P., Biotechniques, 1993, 15: 532). 2 μg from each total RNA preparation were used as starting material for the synthesis of biotinylated cRNA with the MessageAmp™ aRNA kit (Ambion).
15 μg of each biotinylated cRNA were fragmented at 94° C. for 35 minutes in a buffer solution containing 40 mM Tris-Acetate (pH 8.1), 100 mM KOAc and 30 mM MgOAc. The fragmented cRNA was mixed with hybridization buffer (10 mM MES, 1M NaCl, 20 mM EDTA, 0.01% Tween 20) and was heated at 99° C. for 5 minutes and subsequently at 45° C. for 5 minutes, to then be loaded into the Affymetrix array. The first array in which hybridization was carried out was Affymetrix Test 3. This array allows testing the quality of the RNA prior to expression analysis in the Affymetrix® GeneChip® Rat Genome U34 set (RG-U34).
For hybridization, the arrays were incubated in a rotary oven at 45° C. for 16 hours and with a constant rotation of 60 rpm.
Washing and staining of each array was carried out in the Affymetrix® Fluidics Station. A washing and staining program was used which included:
The arrays were scanned at 560 nm using a confocal microscope using laser emission (Agilent GeneArray Scanner). Analysis of the intensity readings was carried out with Microarray Suite 5.0 software. To compare the arrays, the latter were scaled to a total intensity of 100.
Differential analysis of the dusp6 gene expression in the oligodendrocytes stimulated with regard to the control was carried out from the array comparison data obtained using the Affymetrix software. […]

Where [1] appears, read: treated 2 minutes (10 μM AMPA or 3 μM kainate), collected after treatment.
The mark [2] stands for this setting: treated 10 minutes (10 μM AMPA or 3 μM kainate), collected after treatment.
Setting [3] is: treated 15 minutes (10 μM AMPA or 3 μM kainate), collected 60 minutes later.

Turning to `Cc1onc(O)c1CC(N)C(=O)O` (stereo not drawn) [AMPA, α-amino-3-hydroxy-5-methyl-4-isoxazolepropionic acid], under setting [1], the “SLR (vs control)” value is on record as 0.8; the Detection result is “P”; the “Signal (dusp6, probe set U42627_at)” value is recorded as 75.3; the Change result is reported as “I”. Moreover, under setting [2], the “SLR (vs control)” value worked out at 1.2; the Detection entry was “P”; the “Signal (dusp6, probe set U42627_at)” value is on record as 101.7; the Change entry is “I”. In addition, under setting [3], the “SLR (vs control)” value is reported as 2.1; the Detection result is reported as “P”; the “Signal (dusp6, probe set U42627_at)” value is 149.7; the Change entry is recorded as “I”. The “Ratio (=2^SLR)” value (fold change vs untreated control, treated 2 minutes (10 μM AMPA or 3 μM kainate), collected after treatment) came out at 1.7 fold.
